Target: T1, human catalytic PDI A1 a domain (PDIa) (Homo sapiens, UniProt P07237)
T1 construct: made in house; host or cells: Escherichia coli BL21-Gold (DE3)
Assay: Isothermal titration calorimetry (ITC) binding to PDIa

T1 sequence (P07237 18-134): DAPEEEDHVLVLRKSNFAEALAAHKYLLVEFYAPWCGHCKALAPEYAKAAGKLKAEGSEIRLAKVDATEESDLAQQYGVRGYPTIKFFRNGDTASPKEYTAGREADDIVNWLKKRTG

O=C(C1CC1)N1CCN(Cn2sc3c(F)cccc3c2=O)CC1 [LC-43]
binding to PDI by ITC: showed no binding to the protein by ITC
ITC KD (N/A = not active): KD = N/A irreversible or not active
